The target in series [1] is Fibroblast Activation Protein alpha (FAP) (Mus musculus (Mouse), UniProt P97321). As to the kind of experiment: in vivo.
Method: The effect of test compound on FAP enzyme activity in mouse plasma was evaluated in an enzymatic assay using the Fibroblast Activation Protein alpha (FAP) specific fluorogenic substrate dipeptide-Coumarin, Ala-Pro-AMC, (ARI-3144).
Male C57Bl/6 mice (Charles River, Germany), 8 weeks of age, were single housed in a temperature-controlled room with a 12-hour light/dark cycle (06:00-18:00 light). The mice had ad libitum access to water and rodent chow diet (R70, Lactamin, Kimstad, Sweden), and were acclimated for 5 days upon arrival. After acclimation, all mice received a single oral dose of test compound (3 or 10 mg/kg). Blood samples for whole blood compound exposure measurements were taken at 0.25, 0.5, 1, 2, 4, 8 and 24 h post oral dosing. Samples were collected in EDTA capillary tubes (20 μL, K2E, REF 19.447) and were transferred to a 96-deep well plate (NUNC, Thermo Discher Scientific) and stored at −20° C. until further analyses were performed. Blood samples for plasma FAP enzyme activity measurements were taken at 0, 0.25, 0.5, 1, 2, 8 and 24 h post dosing. 25 μL of whole blood was collected in EDTA Microvette® CB 300 (K2E, REF 16.444.100) tubes, and were centrifuged at 4,000×g for 5 min. 10 μL of plasma was then transferred to PCR tubes and stored at −20° C. until further analysis was performed. All blood samples were taken by vena saphena puncture.
Recombinant human FAP (PB-17-1837, construct PL-17-0278, cd33-FAP (27-757)-6His, Mw85926 Da) was used as a standard for this assay. […] The plates were read on a Beckman Paradigm reader with excitation 360 nm and emission 465 nm. Fluorescence measurements were performed with kinetic read every 5 minutes for 60 min at room temperature. Data were analyzed in Excel (IDBS XLfit Add-In) using a Linear Regression (y=k*x+m) model to prepare a human recombinant FAP standard curve.
On the day of the assay, plasma was diluted (1:2) to 20 μL volume in buffer (PBS, 0.1% BSA) and 7.5 μL was transferred to the assay plate (384-well black, fluotrack PS, Greiner 781076). Ala-Pro-AMC (stock solution in 10 mM DMSO) was diluted in buffer (PBS, 0.1% BSA) to 150 μM concentration (180 μL stock solution to 12 mL buffer) and 7.5 μL added to the assay plate followed by a pipetting mix. The plates were read on a Beckman Paradigm reader with excitation 360 nm and emission 465 nm. Fluorescence measurements were performed with kinetic read every 5 minutes for 60 minutes at room temperature. As noted above, FAP cleaves Ala-Pro-AMC to release free AMC which is measured as a fluorescent signal.
The in vivo potency IC50 of each test compound was then estimated by relating the plasma exposure C of the compound to target engagement E in plasma using the following equation:
where E0 is the FAP baseline in plasma prior to dosing and Imax is the maximum effect of the compound. Data from each target engagement experiment were considered separately and therefore slightly different estimates of FAP baseline for each compound were obtained. […] The parameter estimation was done in Phoenix WinNonlin Certara build 8.1.0.3530 with the algorithm ‘Naïve pooled’ as parameter estimation method.
Series [2] addresses human dipeptidylpeptidase 7 (hDPP7) (Homo sapiens (Human), UniProt Q9UHL4). In words: hDPP7 inhibition assay. It is filed as biochemical. The following applies: hDPP7 15 nM, Ala-Pro-amino-methylcoumarin 5 μM, n = 1. The method, then: Compounds were tested in a biochemical inhibition assay using human dipeptidylpeptidase 7 (hDPP7) enzyme at 15 nM FAC (BPS Bioscience, #80070) and the substrate Ala-Pro-amino-methylcoumarin (BPS Bioscience, #80305) at 5 μM FAC. The enzymatic reactions were conducted in duplicate at rt for 30 min in 50 μL DPP assay buffer (BPS Bioscience, #80300). Compound solutions (in DMSO) at 10 CR, 3 fold dilution series were prepared in assay buffer ten-fold higher than the final concentration, and 5 μL of the dilution was added to a 50 μL reaction so that the highest compound concentration was 100 μM FAC and the concentration of DMSO was 1% in all wells. The plates were read on a Tecan Infinite M1000 microplate reader with excitation 340 nm and emission 460 nm. Data were analyzed in Graph Pad Prism. IC50 values were determined by plotting % inhibition versus log compound concentration and using a one site dose response model. Raw data signals were normalized using 1% DMSO as 0% control and no enzyme as 100% inhibitor control.

Series [3] deals with FAP (Mus musculus (Mouse), UniProt P97321). In words: FAP plasma inhibition assay, mouse plasma. Type of series: biochemical. The settings on record: mouse plasma diluted 1:67, Ala-Pro-AMC 75 μM. In a few lines: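 K2EDTA plasma served as enzyme source, human diluted 1:40 and mouse 1:67, in PBS with 0.1% BSA. Compounds ran as a 10-point 3-fold series from 500 nM final, in duplicate, 40 min at rt in the dark, with fluorescence read against a pre-substrate blank. IC50 came from % inhibition versus log concentration.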

Series [4] has as its target human dipeptidylpeptidase 9 (hDPP9) (Homo sapiens (Human), UniProt Q86TI2). In words: hDPP9 inhibition assay. It is filed as biochemical. The settings on record: hDPP9 0.4 nM, Ala-Pro-amino-methylcoumarin 5 μM, n = 1. Here is the method:
Compounds were tested in a biochemical inhibition assay using human dipeptidylpeptidase 9 (hDPP9) enzyme at 0.4 nM FAC (BPS Bioscience, #80090) and the substrate Ala-Pro-amino-methylcoumarin (BPS Bioscience #80305) at 5 μM FAC. The enzymatic reactions were conducted in duplicate at rt for 30 min in 50 μL DPP assay buffer (BPS Bioscience, #80300). […] The plates were read on a Tecan Infinite M1000 microplate reader with excitation 340 nm and emission 460 nm. Data were analyzed in Graph Pad Prism. IC50 values were determined by plotting % inhibition versus log compound concentration and using a one site dose response model. Raw data signals were normalized using 1% DMSO as 0% control and no enzyme as 100% inhibitor control.

Series [5] can be described thus: Kinetic solubility. The following applies: kinetic from dmso stock, Solubility, kinetic solubility; n = 1 or average of n = 2-3.
Method: (§1) Kinetic solubility was measured as described in Comput Aided Mol Des 2015, 29, 795.
The nature of series [6]: Metabolic stability in rat hepatocytes (rHep). The settings on record: n = 1 or geometric mean of n = 2-3.
Series [7] is described as follows: Metabolic stability in human liver microsomes (HLM). The settings on record: human, HLM CLint, n = 1 or average of n = 2-3.
Method: (§2) Metabolic stability in HLM was measured as described in J Comput Aided Mol Des 2015, 29, 795.
Series [8] can be described thus: Metabolic stability in human hepatocytes (hHep). The following applies: n = 1 or geometric mean of n = 2. Type of series: in vitro ADME.
The nature of series [9]: Caco-2 cell permeability. The settings on record: human. A general note: Passage across Caco-2 layers is used to estimate intestinal permeability.
Method: (§3) Caco-2 cell permeability was measured as described in Mol Pharm 2017, 14, 1601.
Series [10] in a line: physchem. The following applies: kinetic from dmso stock.
Method: as §1
For series [11], the target named is human Fibroblast activation protein alpha (hFAP) (Homo sapiens (Human), UniProt Q12884). In words: hFAP inhibition assay (tight binders). Further: hFAP 2.4 pM. It is filed as biochemical. The settings on record: Ala-Pro-AMC 20 μM, n = 1 or geometric mean n = 2-6. Here is the method:
The plates were read on a PHERAstar® reader with excitation 340 nm and emission 460 nm. Data were analyzed in Genedata Screener®. IC50 values were determined by plotting % inhibition versus log compound concentration and using a one site dose response model.

The nature of series [12]: in vitro. The settings on record: human, Caco-2.
Method: as §3
The conditions of series [13]: rat, hepatocytes.
The target in series [14] is Prolyl endopeptidase, Prolyl Oligopeptidase (hPREP) (Homo sapiens (Human), UniProt P48147). As to the kind of experiment: hPrep inhibition assay. It is filed as biochemical. The following applies: hPREP 0.6 nM, Z-Gly-Pro-amino-methylcoumarin 50 μM; read-out: PREP IC50. In a few lines: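 Fluorogenic read-out (340 nm excitation, 460 nm emission) after 20 min at rt, using 50 μM final Z-Gly-Pro-aminomethylcoumarin and 0.6 nM final enzyme, following 15 min compound preincubation. Buffer pH 7.5 with glutathione and Triton X-100. IC50 via one-site model on % inhibition vs log concentration.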

Series [15] has as its target hFAP (M39-A757) (Homo sapiens (Human), UniProt Q12884). In words: hFAP binding assay (surface plasmon resonance). The following applies: SPR, 20° C.; for hFAP Binding assay k(off) / hFAP Binding assay k(on): single cycle kinetics; for Kd: n = 1 or geometric mean n = 2-4.
The nature of series [16]: in vitro. The settings on record: human, microsomes, HLM CLint.
Method: as §2
The target in series [17] is FAP (Homo sapiens (Human), UniProt Q12884). In words: hFAP inhibition assay. Type of series: biochemical. The settings on record: hFAP […], Ala-Pro-AMC 20 μM; n = 1 or geometric mean n = 2-3. The gist of the method: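 Compounds (10-point, 3-fold dilutions from 50 μM top) were preincubated 15 min at rt in the dark with 0.48 nM hFAP in pH 7.4 Tris/NaCl/Chaps buffer. Reaction was started with substrate (40 μM solution) and ran 30 min at rt. Read by fluorescence (340/460 nm); IC50 from one-site fit.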

Values after ≈ are worked out from the molar mass of the structure shown. Read-outs that look alike come from different tables or passages of the source. Where only a bound is given, the exact number is not on record here.

Sequence of Fibroblast Activation Protein alpha (FAP) (P97321 24-761): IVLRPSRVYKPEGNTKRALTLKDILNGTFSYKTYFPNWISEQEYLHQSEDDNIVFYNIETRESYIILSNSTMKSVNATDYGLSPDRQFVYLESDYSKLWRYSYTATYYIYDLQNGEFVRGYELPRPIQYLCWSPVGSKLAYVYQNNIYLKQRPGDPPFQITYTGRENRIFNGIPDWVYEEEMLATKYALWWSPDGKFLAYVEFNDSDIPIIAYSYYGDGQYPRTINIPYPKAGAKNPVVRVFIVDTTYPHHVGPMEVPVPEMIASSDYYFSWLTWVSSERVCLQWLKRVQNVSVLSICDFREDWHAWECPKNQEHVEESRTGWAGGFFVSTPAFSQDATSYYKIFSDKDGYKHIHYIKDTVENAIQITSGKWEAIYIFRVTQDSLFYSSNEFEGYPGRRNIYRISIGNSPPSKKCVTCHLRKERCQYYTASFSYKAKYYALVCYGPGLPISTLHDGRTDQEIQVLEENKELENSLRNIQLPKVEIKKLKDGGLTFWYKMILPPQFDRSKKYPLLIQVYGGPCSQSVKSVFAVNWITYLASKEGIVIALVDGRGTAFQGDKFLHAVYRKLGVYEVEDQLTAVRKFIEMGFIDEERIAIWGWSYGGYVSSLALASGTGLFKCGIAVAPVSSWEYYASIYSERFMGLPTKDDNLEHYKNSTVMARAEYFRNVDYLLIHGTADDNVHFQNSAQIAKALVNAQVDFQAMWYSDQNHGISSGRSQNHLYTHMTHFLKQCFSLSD
Sequence of FAP (Mus musculus (Mouse), UniProt P97321) (P97321 24-761): as above
Sequence of hFAP (M39-A757) (Q12884 39-757): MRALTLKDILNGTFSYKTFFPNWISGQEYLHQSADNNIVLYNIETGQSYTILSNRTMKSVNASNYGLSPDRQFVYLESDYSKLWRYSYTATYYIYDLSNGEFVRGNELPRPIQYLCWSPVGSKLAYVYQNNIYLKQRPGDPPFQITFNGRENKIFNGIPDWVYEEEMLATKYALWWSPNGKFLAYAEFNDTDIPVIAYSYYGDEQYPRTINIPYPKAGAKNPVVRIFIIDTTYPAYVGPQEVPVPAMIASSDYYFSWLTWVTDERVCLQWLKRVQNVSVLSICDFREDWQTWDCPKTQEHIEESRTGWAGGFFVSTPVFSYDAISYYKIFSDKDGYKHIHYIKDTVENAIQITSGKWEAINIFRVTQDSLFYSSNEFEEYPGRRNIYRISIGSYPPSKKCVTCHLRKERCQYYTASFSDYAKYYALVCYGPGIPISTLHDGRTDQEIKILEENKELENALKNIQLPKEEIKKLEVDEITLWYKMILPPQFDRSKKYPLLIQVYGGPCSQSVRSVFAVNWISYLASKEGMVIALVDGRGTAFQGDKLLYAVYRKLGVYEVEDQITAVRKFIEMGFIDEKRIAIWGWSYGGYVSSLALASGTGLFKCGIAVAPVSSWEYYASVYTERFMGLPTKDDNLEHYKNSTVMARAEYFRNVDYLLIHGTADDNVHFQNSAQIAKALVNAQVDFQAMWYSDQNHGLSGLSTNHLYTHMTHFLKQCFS
Sequence of human Fibroblast activation protein alpha (hFAP) (Q12884 38-760): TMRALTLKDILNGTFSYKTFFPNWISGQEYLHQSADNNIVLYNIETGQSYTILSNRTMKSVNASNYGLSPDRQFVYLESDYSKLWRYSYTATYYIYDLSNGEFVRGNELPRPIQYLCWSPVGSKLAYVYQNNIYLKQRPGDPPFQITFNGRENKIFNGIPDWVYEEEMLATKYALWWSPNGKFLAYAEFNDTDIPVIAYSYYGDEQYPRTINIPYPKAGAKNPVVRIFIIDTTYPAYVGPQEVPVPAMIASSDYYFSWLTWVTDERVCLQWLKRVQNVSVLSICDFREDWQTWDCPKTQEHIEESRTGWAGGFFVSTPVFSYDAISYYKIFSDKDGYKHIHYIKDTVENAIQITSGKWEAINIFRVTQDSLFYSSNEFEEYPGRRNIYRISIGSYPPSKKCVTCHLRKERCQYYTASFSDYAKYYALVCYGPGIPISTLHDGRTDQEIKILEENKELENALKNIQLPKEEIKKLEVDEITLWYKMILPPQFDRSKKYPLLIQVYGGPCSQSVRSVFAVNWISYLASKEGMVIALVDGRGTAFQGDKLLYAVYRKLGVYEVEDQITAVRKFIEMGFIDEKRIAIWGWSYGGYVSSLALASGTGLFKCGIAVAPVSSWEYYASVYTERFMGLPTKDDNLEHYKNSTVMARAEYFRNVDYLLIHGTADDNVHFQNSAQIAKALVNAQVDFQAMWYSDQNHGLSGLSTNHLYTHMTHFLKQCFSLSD
Sequence of Prolyl endopeptidase, Prolyl Oligopeptidase (hPREP) (P48147 whole entry): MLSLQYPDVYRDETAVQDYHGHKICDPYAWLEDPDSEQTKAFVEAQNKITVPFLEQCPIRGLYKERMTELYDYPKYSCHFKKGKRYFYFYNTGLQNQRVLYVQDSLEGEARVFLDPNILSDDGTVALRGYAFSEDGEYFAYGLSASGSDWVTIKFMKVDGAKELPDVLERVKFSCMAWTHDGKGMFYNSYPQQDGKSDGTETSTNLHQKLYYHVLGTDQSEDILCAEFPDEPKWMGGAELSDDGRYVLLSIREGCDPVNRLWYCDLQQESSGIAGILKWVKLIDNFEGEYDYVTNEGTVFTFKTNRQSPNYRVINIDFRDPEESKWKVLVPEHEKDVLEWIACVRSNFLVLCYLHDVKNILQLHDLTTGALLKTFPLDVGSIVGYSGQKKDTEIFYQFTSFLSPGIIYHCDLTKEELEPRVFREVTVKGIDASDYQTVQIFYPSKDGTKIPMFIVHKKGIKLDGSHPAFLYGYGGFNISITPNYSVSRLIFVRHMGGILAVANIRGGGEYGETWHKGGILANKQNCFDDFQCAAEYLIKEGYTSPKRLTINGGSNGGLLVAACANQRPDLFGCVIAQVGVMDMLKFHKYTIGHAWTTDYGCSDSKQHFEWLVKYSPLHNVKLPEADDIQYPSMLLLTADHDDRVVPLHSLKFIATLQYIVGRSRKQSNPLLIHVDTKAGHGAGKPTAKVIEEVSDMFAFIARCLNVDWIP
Sequence of human dipeptidylpeptidase 9 (hDPP9) (Q86TI2 whole entry): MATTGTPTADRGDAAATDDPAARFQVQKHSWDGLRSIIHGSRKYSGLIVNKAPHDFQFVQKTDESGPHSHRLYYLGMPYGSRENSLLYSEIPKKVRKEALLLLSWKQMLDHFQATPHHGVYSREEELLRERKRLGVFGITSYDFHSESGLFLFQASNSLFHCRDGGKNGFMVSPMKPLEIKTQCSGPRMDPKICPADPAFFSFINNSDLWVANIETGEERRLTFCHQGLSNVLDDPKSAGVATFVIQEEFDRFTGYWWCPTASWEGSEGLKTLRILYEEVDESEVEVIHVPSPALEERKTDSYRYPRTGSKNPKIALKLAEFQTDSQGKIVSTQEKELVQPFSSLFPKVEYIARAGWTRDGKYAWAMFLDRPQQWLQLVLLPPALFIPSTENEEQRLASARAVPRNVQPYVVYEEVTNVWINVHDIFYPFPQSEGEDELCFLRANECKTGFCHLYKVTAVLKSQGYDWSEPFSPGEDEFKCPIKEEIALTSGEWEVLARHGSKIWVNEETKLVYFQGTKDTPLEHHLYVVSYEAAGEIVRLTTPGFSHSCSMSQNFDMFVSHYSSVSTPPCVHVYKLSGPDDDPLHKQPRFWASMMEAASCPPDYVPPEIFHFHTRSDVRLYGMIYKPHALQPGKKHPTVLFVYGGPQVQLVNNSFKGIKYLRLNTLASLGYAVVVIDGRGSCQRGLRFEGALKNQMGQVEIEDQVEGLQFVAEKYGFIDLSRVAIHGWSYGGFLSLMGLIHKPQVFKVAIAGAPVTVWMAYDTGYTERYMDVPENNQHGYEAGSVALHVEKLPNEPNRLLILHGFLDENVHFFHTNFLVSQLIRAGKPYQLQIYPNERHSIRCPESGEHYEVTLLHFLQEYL
Sequence of FAP (Homo sapiens (Human), UniProt Q12884) (Q12884 38-760): as the sequence (Q12884 38-760) above

`N#C[C@@H]1CSCN1C(=O)CNC(=O)c1ccnc2ccc(N3CCOCC3)cc12` [Example 67, (R)—N-(2-(4-Cyanothiazolidin-3-yl)-2-oxoethyl)-6-morpholinoquinoline-4-carboxamide]: the IC50 (usually the concentration that inhibits the measured activity by half) is 0.18 nM in [1], 33000 nM in series [2] and 0.52 nM in series [3].
For the molecule `N#C[C@@H]1CSCN1C(=O)CNC(=O)c1ccnc2ccc(N3CCO[C@@H](CF)C3)cc12` [Example 69, N-(2-((R)-4-Cyanothiazolidin-3-yl)-2-oxoethyl)-6-((R)-2-(fluoromethyl)morpholino)-quinoline-4-carboxamide], the results for the IC50 in series [1], in series [4] and in series [2] were 2.1 nM, 950 nM and above 100000 nM, respectively.
Turning to `N#C[C@@H]1CSCN1C(=O)CNC(=O)c1ccnc2ccc(N3CCO[C@H](CF)C3)cc12` [Example 71, N-(2-((R)-4-Cyanothiazolidin-3-yl)-2-oxoethyl)-6-((S)-2-(fluoromethyl)morpholino)-quinoline-4-carboxamide], the IC50 in series [1] is 2.8 nM; in [4] it was 1900 nM; in series [2], above 100000 nM; in [3], 0.2 nM.
On to `C[C@@H]1CN(c2ccc3nccc(C(=O)NCC(=O)N4CSC[C@H]4C#N)c3c2)CCO1` [Example 72, N-(2-((R)-4-Cyanothiazolidin-3-yl)-2-oxoethyl)-6-((R)-2-methylmorpholino)-quinoline-4-carboxamide], for which the solubility (usually the concentration that dissolves in the medium under given conditions) in series [5] was above 1000 µM. In addition, the IC50 in series [1] is 7.2 nM; in series [4], 2500 nM; in series [2] it was above 100000 nM; in series [3], 0.2 nM. Moreover, in series [6], the “rHep CLint” value came out at 2.7 μL/min/1E6. For the same molecule, the microsomal CLint (in general, the capacity of the preparation to metabolise the compound, expressed as a volume cleared per time) in [7] came out at 9.7 µL/min/mg. In addition, the “hHep CLint” value in [8] is below 1 μL/min/1E6. Moreover, the Papp A→B (in general, how fast a substance crosses the layer from the apical side) in series [9] was determined as 13 nm/s. The Papp B→A (in general, the apparent permeability from the basolateral to the apical side of a cell layer) in [9] was 240 nm/s.
Take `N#C[C@@H]1CSCN1C(=O)CNC(=O)c1ccnc2ccc(N3CC4CC(C3)O4)cc12` [Example 77, 6-(6-Oxa-3-azabicyclo[3.1.1]heptan-3-yl)-N-(2-((R)-4-cyanothiazolidin-3-yl)-2-oxoethyl)quinoline-4-carboxamide]: the concentration in solution in series [10] (solubility) came to 850 µM (≈ 360 µg/mL). The same molecule had an IC50 in series [11] of 0.051 nM. In addition, in series [12], the Papp A→B was found to be 5.7 nm/s; the Papp B→A was determined as 160 nm/s; the efflux ratio – broadly, the permeability from basolateral to apical divided by that in the opposite direction, in the common usage – is 29. In addition, the “rHep CLint” value in series [13] is 5.4 μL/min/1E6. The IC50 in series [14] came to 470 nM. In series [15], the “hFAP Binding assay k(off)” value is 0.000066 s⁻¹, the “hFAP Binding assay k(on)” value stood at 4800000 M⁻¹ s⁻¹ and the Kd (commonly the equilibrium constant for the complex coming apart) was 0.014 nM. Moreover, in series [16], the microsomal CLint is 7.1 µL/min/mg.
In turn, `C[C@H]1CN(c2ccc3nccc(C(=O)NCC(=O)N4CSC[C@H]4C#N)c3c2)CCO1` [Example 80, N-(2-((R)-4-Cyanothiazolidin-3-yl)-2-oxoethyl)-6-((S)-2-methylmorpholino)-quinoline-4-carboxamide] gave a solubility in series [5] of 980 µM (≈ 417 µg/mL). For the same molecule, the values for the IC50 in series [1], in [4] and in series [2] were 9 nM, 1400 nM and above 100000 nM, respectively. The “rHep CLint” value in [6] is recorded as 2 μL/min/1E6. Besides, the microsomal CLint in [7] is 7.5 µL/min/mg. Further, the “hHep CLint” value in [8] is recorded as below 1 μL/min/1E6. Moreover, in series [9], the Papp A→B was 8.1 nm/s. The molecule also came in with a Papp B→A in series [9] of 250 nm/s.
In series [10], `N#C[C@@H]1CSCN1C(=O)CNC(=O)c1ccnc2ccc(N3C4CCCC3COC4)cc12` [Example 86, 6-(3-Oxa-9-azabicyclo[3.3.1]nonan-9-yl)-N-(2-((R)-4-cyanothiazolidin-3-yl)-2-oxoethyl)quinoline-4-carboxamide] displayed a solubility of 640 µM (≈ 289 µg/mL). This molecule also had an IC50 in series [11] of 0.074 nM. The “rHep CLint” value in series [13] is 44 μL/min/1E6. For the same molecule, the IC50 in series [14] was 360 nM. Moreover, in series [15], the “hFAP Binding assay k(off)” value is 0.000058 s⁻¹, the “hFAP Binding assay k(on)” value was 730000 M⁻¹ s⁻¹ and the dissociation constant (Kd) was 0.081 nM. In series [16], this molecule came in with a microsomal CLint of 160 µL/min/mg.
For `COC1(C)CN(c2ccc3nccc(C(=O)NCC(=O)N4CSC[C@H]4C#N)c3c2)C1` [Example 151, (R)—N-(2-(4-Cyanothiazolidin-3-yl)-2-oxoethyl)-6-(3-methoxy-3-methylazetidin-1-yl)quinoline-4-carboxamide], the values for the IC50 in series [1], in [2] and in series [3] were 3.3 nM, above 100000 nM and 0.4 nM, respectively.
Take `N#C[C@@H]1CSCN1C(=O)CNC(=O)c1ccnc2ccc(N3CC4(C3)OCCO4)cc12` [Example 163, (R)—N-(2-(4-Cyanothiazolidin-3-yl)-2-oxoethyl)-6-(5,8-dioxa-2-azaspiro[3.4]octan-2-yl)quinoline-4-carboxamide]: the IC50 in [1] was 3 nM; in series [2] it was above 100000 nM; in series [3], 0.2 nM.
In the case of `Cc1nn(C)cc1-c1ccc2nccc(C(=O)NCC(=O)N3CSC[C@H]3C#N)c2c1` [Example 171, (R)—N-(2-(4-Cyanothiazolidin-3-yl)-2-oxoethyl)-6-(1,3-dimethyl-1H-pyrazol-4-yl)quinoline-4-carboxamide], the IC50 in [1] was 2.5 nM; in series [2], above 100000 nM; in series [3], 0.3 nM.
For the molecule `N#C[C@@H]1CSCN1C(=O)CNC(=O)c1ccnc2ccc(N3C4CCC3CC4)cc12` [Example 209, (R)-6-(7-Azabicyclo[2.2.1]heptan-7-yl)-N-(2-(4-cyanothiazolidin-3-yl)-2-oxoethyl)quinoline-4-carboxamide], the solubility in series [10] was 970 µM (≈ 409 µg/mL). The values for the IC50 in [11], in series [17] and in [14] were 0.15 nM, 0.44 nM and 540 nM, respectively. The “rHep CLint” value in [13] worked out at 52 μL/min/1E6. Besides, in series [15], the “hFAP Binding assay k(off)” value stood at 0.000042 s⁻¹. Also, the “hFAP Binding assay k(on)” value in series [15] turned out to be 3200000 M⁻¹ s⁻¹. In addition, binding in series [15] was put at a Kd of 0.02 nM. In series [16], the microsomal CLint was determined as 170 µL/min/mg.

Source of the values: patent US20230312550A1, “N-(2-(4-CYANOTHIAZOLIDIN-3-YL)-2-OXOETHYL)-QUINOLINE-4-CARBOXAMIDES” (AstraZeneca AB, priority 2020, published 2023).
